# Earlier results, collected in patent US11446359B2, “Systems and methods for cardiac plexus neuromodulation” (Tulavi Therapeutics, Inc., priority 2015, dated 2022).
# Tests used:
# [1] = 2.5 ml 0.25% with epinephrine
# asthma [2] = test system: asthma
# lumbar chain = conditions: remaining 4 required a second block
# asthma [3] = test system: asthma; remark: listed apart in the source
# [4] = test system: thoracic sympathetic ganglia and rami
# [5] = in vivo
# axons and Schwann cells = conditions: in vivo
compound,measurement,setting,value
C[C@H](CCCC(C)(C)O)[C@H]1CC[C@H]2[C@@H]3CC=C4C[C@@H](O)CC[C@]4(C)[C@H]3CC[C@]12C [25-OH-cholesterol],relative potency among cholesterol oxides,sympathetic ganglia,most potent
CCCCN1CCCCC1C(=O)Nc1c(C)cccc1C (centres unmarked) [Marcaine],duration of relief,[1],1 to 10 days
same,"duration of relief, median",[1],4 days
"CCO [absolute alcohol, ethanol]",patients free of asthma,"asthma [2]; case studies, n=3, 1 cc absolute alcohol",100%
same,cases that obtained complete relief,asthma [2]; further cases,80%
same,patients that required one injection only,lumbar chain,19/23
same,patients with complete disappearance of asthma,"asthma [3]; case studies, n=5, 2.5 cc absolute alcohol per injection",100%
same,cases with complete relief,"asthma [3]; further work, 13/18 cases",72%
same,patients with complete relief,[4]; 23 cases,75%
same,cases with cure or dramatic improvement in asthma,[4]; severe intractable asthma cases (Levin 1935),75%
Oc1ccccc1 [phenol],bilateral sensory blockade,[5],1.3%
same,intrathecal injection observed,[5],0.52%
same,transient hypertension,[5],4.6%
same,time at which regeneration in the periphery may begin,axons and Schwann cells,2 weeks
